In ChEMBL document CHEMBL1141468, “Photoactivated enediynes as targeted antitumoral agents: efficient routes to antibody and gold nanoparticle conjugates” (Bioorg Med Chem Lett, 2008) one finds Activity data, which are given here for one compound.

The structures appear in SMILES notation.

The nature of the experiment: Radiation-induced photodegradation in […] X174 Rf1 DNA assessed as conversion of type 2 DNA at 1 uM after 3 hrs.

Take `O=C(O)CCOCCOCCOCCOCCOCCOCCOCCOCCOCCOCCOCCOCCOCCC(=O)OCc1ccc(C#Cc2ccccc2C#Cc2ccccc2)cc1`: the Activity is 24%.
